Test results from patent publication US20240368135A1 (VERTEX PHARMACEUTICALS INCORPORATED, priority 2021, published 2024).

Molecular target: human NaV 1.8 (Homo sapiens, UniProt Q9Y5Y9)
Assay: E-VIPR assay detecting and measuring NaV inhibition properties
Type: cell-based
Conditions: HEK cells expressing truncated human NaV 1.8; in the presence of human serum (compound numbers followed by *); read-out: IC50 in the E-VIPR Assay, performed in the presence of human serum
In short: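 Membrane potential was followed by coumarin/oxonol FRET during electrical field stimulation of matrigel-seeded HEK cells carrying truncated human NaV1.8 plus KIR2.1. Dosing used 11 points, 3-fold steps, top 300 nM final, 0.625% DMSO, with or without 25% human serum.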

human NaV 1.8, sequence (Q9Y5Y9 126-399 limits assumed): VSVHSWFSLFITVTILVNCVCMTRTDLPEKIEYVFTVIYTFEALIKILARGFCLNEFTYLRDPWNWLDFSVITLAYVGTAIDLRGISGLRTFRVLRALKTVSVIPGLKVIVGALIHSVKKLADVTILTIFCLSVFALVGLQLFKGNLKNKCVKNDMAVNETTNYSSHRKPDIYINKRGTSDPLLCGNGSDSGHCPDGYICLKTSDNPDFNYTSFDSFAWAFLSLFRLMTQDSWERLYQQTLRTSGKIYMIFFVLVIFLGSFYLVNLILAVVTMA
human NaV 1.8, sequence (Q9Y5Y9 660-890 limits assumed): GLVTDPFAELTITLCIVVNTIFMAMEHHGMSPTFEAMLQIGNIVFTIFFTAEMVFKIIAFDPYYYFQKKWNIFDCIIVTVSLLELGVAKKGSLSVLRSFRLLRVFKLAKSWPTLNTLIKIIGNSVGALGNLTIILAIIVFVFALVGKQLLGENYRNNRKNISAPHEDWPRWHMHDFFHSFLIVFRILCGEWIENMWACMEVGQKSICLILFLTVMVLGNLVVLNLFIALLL
human NaV 1.8, sequence (Q9Y5Y9 1148-1722 limits assumed): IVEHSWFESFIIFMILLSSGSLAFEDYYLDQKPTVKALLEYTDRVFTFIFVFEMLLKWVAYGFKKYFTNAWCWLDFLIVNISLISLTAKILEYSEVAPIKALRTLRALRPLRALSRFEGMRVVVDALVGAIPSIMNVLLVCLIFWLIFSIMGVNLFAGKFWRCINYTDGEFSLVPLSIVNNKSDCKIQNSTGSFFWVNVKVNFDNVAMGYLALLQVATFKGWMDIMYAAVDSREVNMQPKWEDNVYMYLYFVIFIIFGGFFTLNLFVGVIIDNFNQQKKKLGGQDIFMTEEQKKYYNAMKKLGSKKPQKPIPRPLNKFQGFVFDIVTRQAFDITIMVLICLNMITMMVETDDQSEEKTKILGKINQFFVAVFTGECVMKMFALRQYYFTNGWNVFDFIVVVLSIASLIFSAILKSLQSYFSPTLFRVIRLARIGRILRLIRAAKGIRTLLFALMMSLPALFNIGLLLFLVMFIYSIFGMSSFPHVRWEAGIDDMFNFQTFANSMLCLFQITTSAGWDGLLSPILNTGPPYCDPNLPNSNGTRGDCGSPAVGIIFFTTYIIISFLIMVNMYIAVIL

With `COc1c(C2C(C(=O)Nc3ccnc(C(O)C(C)O)c3)OC(C)(C(F)(F)F)C2C)ccc(F)c1C` (single isomer, unassigned) [Compound 148] as the compound, how does the IC50 read?
Its IC50 is under 10 nM.

For `COc1c([C@H]2C[C@@](C)(C(F)(F)F)O[C@@H]2C(=O)Nc2ccnc([C@@H](O)[C@H](C)O)c2)ccc(F)c1F` (stereo in doubt) [Compound 698, rel-(2S,3R,5S)-3-(3,4-difluoro-2-methoxyphenyl)-N-(2-((1R,2S)-1,2-dihydroxypropyl)pyridin-4-yl)-5-methyl-5-(trifluoromethyl)tetrahydrofuran-2-carboxamide], which IC50 is on record?
Its IC50 is at least 1000 nM.

Same assay, conditions: HEK cells expressing truncated human NaV 1.8; no human serum; read-out: IC50 in the E-VIPR Assay

`C[C@H]1[C@@H](c2ccc(F)c(F)c2OCCN2CC3(COC3)C2)[C@H](C(=O)Nc2ccc3nncn3c2)O[C@@]1(C)C(F)(F)F` [Compound 620, (2R,3S,4S,5R)-3-(2-(2-(2-oxa-6-azaspiro[3.3]heptan-6-yl)ethoxy)-3,4-difluorophenyl)-N-([1,2,4]triazolo[4,3-a]pyridin-6-yl)-4,5-dimethyl-5-(trifluoromethyl)tetrahydrofuran-2-carboxamide] was tested. Which IC50 did it give?
The IC50 was 10 to 100 nM.

For `COCCOc1c([C@H]2[C@H](C(=O)Nc3ccnc(CO)c3)O[C@@](C)(C(F)(F)F)[C@H]2C)ccc(F)c1F` [Compound 639, (2R,3S,4S,5R)-3-(3,4-difluoro-2-(2-methoxyethoxy)phenyl)-N-(2-(hydroxymethyl)pyridin-4-yl)-4,5-dimethyl-5-(trifluoromethyl)tetrahydrofuran-2-carboxamide], which IC50 is on record?
The IC50 was under 10 nM.

`C[C@H]1[C@@H](c2ccc(F)c(F)c2OC(F)F)[C@H](C(=O)Nc2cncc(S(C)(=O)=O)c2)O[C@@]1(C)C(F)(F)F` (single isomer, unassigned) [Compound 96] was tested. Which IC50 did it give?
The IC50 was under 10 nM.

Which IC50 does the source give for `COc1c(C2C(C(=O)Nc3cnnc(CO)c3)OC(C)(C(F)(F)F)C2C)ccc(F)c1F` (stereo not shown) [Compound 18, 3-(3,4-difluoro-2-methoxy-phenyl)-N-[6-(hydroxymethyl)pyridazin-4-yl]-4,5-dimethyl-5-(trifluoromethyl)tetrahydrofuran-2-carboxamide] here?
The IC50 was under 10 nM.

How did the IC50 turn out when `CNC(=O)c1cn2cc(NC(=O)[C@@H]3O[C@@](C)(C(F)(F)F)[C@@H](C)[C@H]3c3ccc(F)c(F)c3OC)ccc2n1` [Compound 258, 6-((2R,3S,4S,5R)-3-(3,4-difluoro-2-methoxyphenyl)-4,5-dimethyl-5-(trifluoromethyl)tetrahydrofuran-2-carboxamido)-N-methylimidazo[1,2-a]pyridine-2-carboxamide] was run?
Its IC50 is 10 to 100 nM.

`COc1cc(NC(=O)[C@@H]2O[C@@](C)(C(F)(F)F)[C@@H](C)[C@H]2c2ccc(F)c(F)c2OCCO)c(F)cn1` [Compound 570, (2R,3S,4S,5R)-3-(3,4-difluoro-2-(2-hydroxyethoxy)phenyl)-N-(5-fluoro-2-methoxypyridin-4-yl)-4,5-dimethyl-5-(trifluoromethyl)tetrahydrofuran-2-carboxamide] was tested. Which IC50 did it give?
The IC50 was 10 to 100 nM.

`[2H]C([2H])([2H])Oc1c([C@H]2[C@H](C(=O)Nc3ccnc(N4C(=O)CN(C)C[C@H]4C)c3)O[C@@](C)(C(F)(F)F)[C@H]2C)ccc(F)c1F` [Compound 519, (2R,3S,4S,5R)-3-[3,4-difluoro-2-(trideuteriomethoxy)phenyl]-N-[2-[(2R)-2,4-dimethyl-6-oxo-piperazin-1-yl]-4-pyridyl]-4,5-dimethyl-5-(trifluoromethyl)tetrahydrofuran-2-carboxamide] was tested. Which IC50 did it give?
The IC50 was under 10 nM.

With `COC[C@@H](O)Cc1cc(NC(=O)[C@@H]2O[C@@](C)(C(F)(F)F)[C@@H](C)[C@H]2c2ccc(F)c(F)c2OCCN2CCOCC2)ccn1` [Compound 596, (2R,3S,4S,5R)-3-(3,4-difluoro-2-(2-morpholinoethoxy)phenyl)-N-(2-((S)-2-hydroxy-3-methoxypropyl)pyridin-4-yl)-4,5-dimethyl-5-(trifluoromethyl)tetrahydrofuran-2-carboxamide] as the compound, how does the IC50 read?
The IC50 was 10 to 100 nM.

For `CNc1ccc(NC(=O)[C@@H]2O[C@@](C)(C(F)(F)F)[C@@H](C)[C@H]2c2ccc(F)c(F)c2OC)cn1` [Compound 524, (2R,3S,4S,5R)-3-(3,4-difluoro-2-methoxy-phenyl)-4,5-dimethyl-N-[6-(methylamino)-3-pyridyl]-5-(trifluoromethyl)tetrahydrofuran-2-carboxamide], which IC50 is on record?
Its IC50 is 10 to 100 nM.

Which IC50 does the source give for `CNCC(=O)N(C)c1cc(NC(=O)[C@@H]2O[C@@](C)(C(F)(F)F)[C@@H](C)[C@H]2c2ccc(F)c(F)c2OC)ccn1` [Compound 486, (2R,3S,4S,5R)-3-(3,4-difluoro-2-methoxyphenyl)-4,5-dimethyl-N-(2-(N-methyl-2-(methylamino)acetamido)pyridin-4-yl)-5-(trifluoromethyl)tetrahydrofuran-2-carboxamide] here?
Its IC50 is under 10 nM.

With `Cc1nn(C(F)F)cc1NC(=O)[C@@H]1O[C@@](C)(C(F)(F)F)[C@@H](C)[C@H]1c1ccc(F)c(F)c1OCC1COC1` [Compound 579, (2R,3S,4S,5R)-3-(3,4-difluoro-2-(oxetan-3-ylmethoxy)phenyl)-N-(1-(difluoromethyl)-3-methyl-1H-pyrazol-4-yl)-4,5-dimethyl-5-(trifluoromethyl)tetrahydrofuran-2-carboxamide] as the compound, how does the IC50 read?
Its IC50 is under 10 nM.

Which IC50 does the source give for `Cc1c(F)ccc([C@@H]2[C@@H](C(=O)Nc3ccn(C)c(=O)c3)O[C@](C)(C(F)(F)F)[C@@H]2C)c1OC(F)F` (stereo in doubt) [Compound 99, rel-(2S,3R,4R,5S)-3-(2-(difluoromethoxy)-4-fluoro-3-methylphenyl)-4,5-dimethyl-N-(1-methyl-2-oxo-1,2-dihydropyridin-4-yl)-5-(trifluoromethyl)tetrahydrofuran-2-carboxamide] here?
The IC50 was at least 1000 nM.

For `COc1c([C@H]2[C@H](C(=O)Nc3ccc(C(=O)NC#N)nc3)O[C@@](C)(C(F)(F)F)[C@H]2C)ccc(F)c1F` [Compound 373, N-cyano-5-[[(2R,3S,4S,5R)-3-(3,4-difluoro-2-methoxy-phenyl)-4,5-dimethyl-5-(trifluoromethyl)tetrahydrofuran-2-carbonyl]amino]pyridine-2-carboxamide], which IC50 is on record?
Its IC50 is 100 to 1000 nM.

`COc1c([C@H]2[C@H](C(=O)Nc3ccnc(N4C[C@@H](C)N(C)CC4=O)c3)O[C@@](C)(C(F)(F)F)[C@H]2C)ccc(F)c1F` [Compound 470, (2R,3S,4S,5R)-3-(3,4-difluoro-2-methoxyphenyl)-N-(2-((R)-4,5-dimethyl-2-oxopiperazin-1-yl)pyridin-4-yl)-4,5-dimethyl-5-(trifluoromethyl)tetrahydrofuran-2-carboxamide] was tested. Which IC50 did it give?
The IC50 was under 10 nM.

How did the IC50 turn out when `COc1c([C@H]2[C@H](C(=O)NC3CN(S(C)(=O)=O)C3)O[C@@](C)(C(F)(F)F)[C@H]2C)ccc(F)c1F` [Compound 307, (2R,3S,4S,5R)-3-(3,4-difluoro-2-methoxyphenyl)-4,5-dimethyl-N-(1-(methylsulfonyl)azetidin-3-yl)-5-(trifluoromethyl)tetrahydrofuran-2-carboxamide] was run?
Its IC50 is at least 1000 nM.

With `COC[C@@H](O)Cc1cc(NC(=O)[C@@H]2O[C@@](C)(C(F)(F)F)[C@@H](C)[C@H]2c2ccc(F)c(F)c2OC)ccn1` [Compound 369, (2R,3S,4S,5R)-3-(3,4-difluoro-2-methoxyphenyl)-N-(2-((S)-2-hydroxy-3-methoxypropyl)pyridin-4-yl)-4,5-dimethyl-5-(trifluoromethyl)tetrahydrofuran-2-carboxamide] as the compound, how does the IC50 read?
The IC50 was under 10 nM.

Which IC50 does the source give for `COc1c([C@H]2[C@H](C(=O)Nc3ccc(C#CCO)nc3)O[C@@](C)(C(F)(F)F)[C@H]2C)ccc(F)c1F` [Compound 403, (2R,3S,4S,5R)-3-(3,4-difluoro-2-methoxyphenyl)-N-(6-(3-hydroxyprop-1-yn-1-yl)pyridin-3-yl)-4,5-dimethyl-5-(trifluoromethyl)-tetrahydrofuran-2-carboxamide] here?
The IC50 was 10 to 100 nM.

Which IC50 does the source give for `COc1c([C@H]2[C@H](C(=O)Nc3cnc4c(c3)OCC4O)O[C@@](C)(C(F)(F)F)[C@H]2C)ccc(F)c1F` (single isomer, unassigned) [Compound 409, rel-(2R*,3S*,4S*,5R*)-3-(3,4-difluoro-2-methoxyphenyl)-N-(3-hydroxy-2,3-dihydrofuro[3,2-b]pyridin-6-yl)-4,5-dimethyl-5-(trifluoromethyl)-tetrahydrofuran-2-carboxamide] here?
Its IC50 is 100 to 1000 nM.

With `COc1c([C@H]2[C@H](C(=O)Nc3ccc4cnnn4c3)O[C@@](C)(C(F)(F)F)[C@H]2C)ccc(F)c1F` [Compound 329, (2R,3S,4S,5R)-N-([1,2,3]triazolo[1,5-a]pyridin-6-yl)-3-(3,4-difluoro-2-methoxyphenyl)-4,5-dimethyl-5-(trifluoromethyl)-tetrahydrofuran-2-carboxamide] as the compound, how does the IC50 read?
Its IC50 is under 10 nM.

Which IC50 does the source give for `COc1c(C2C(C(=O)Nc3ccnc(S(C)(=O)=O)c3)OC(C)(C(F)(F)F)C2C)ccc(F)c1F` (single isomer, unassigned) [Compound 50, 3-(3,4-difluoro-2-methoxy-phenyl)-4,5-dimethyl-N-(2-methylsulfonyl-4-pyridyl)-5-(trifluoromethyl)tetrahydrofuran-2-carboxamide] here?
The IC50 was under 10 nM.

`COc1c([C@H]2[C@H](C(=O)NCCc3c(C)n[nH]c3C)O[C@@](C)(C(F)(F)F)[C@H]2C)ccc(F)c1F` [Compound 285, (2R,3S,4S,5R)-3-(3,4-difluoro-2-methoxyphenyl)-N-(2-(3,5-dimethyl-1H-pyrazol-4-yl)ethyl)-4,5-dimethyl-5-(trifluoromethyl)tetrahydrofuran-2-carboxamide] was tested. Which IC50 did it give?
The IC50 was at least 1000 nM.

How did the IC50 turn out when `C[C@H]1[C@@H](c2ccc(F)c(F)c2)[C@H](C(=O)Nc2ccnc(S(C)(=O)=O)c2)O[C@@]1(C)C(F)(F)F` (stereo in doubt) [Compound 155, rel-(2R,3S,4S,5R)-3-(3,4-difluorophenyl)-4,5-dimethyl-N-(2-(methylsulfonyl)pyridin-4-yl)-5-(trifluoromethyl)tetrahydrofuran-2-carboxamide] was run?
Its IC50 is 10 to 100 nM.

For `C[C@@H]1[C@H](c2ccc(F)c(F)c2OC(F)F)[C@@H](C(=O)Nc2ccc(CCO)nc2)O[C@]1(C)C(F)(F)F` (single isomer, unassigned) [Compound 459], which IC50 is on record?
Its IC50 is at least 1000 nM.
